This note sets out measurements from patent publication US10821059B2, “Cleansing bars” (priority 2015, dated 2020).

The data set is described as follows: Piroctone olamine as a phenoxyethanol solution. Format: physicochemical. The following applies: if heated, for example to 80° C. How it is done: In some embodiments, piroctone olamine is dissolved in a suitable amount of phenoxyethanol; i.e., all or part of the phenoxyethanol of the composition can be employed as the solvent for the piroctone olamine. Typically, where phenoxyethanol is the solvent for the piroctone olamine pre-mix or pre-solution, the piroctone olamine is present in the pre-mixture or pre-solution in an amount of from 1-30% by weight; for example 5%, 10%, 15%, 20%, 25% or 30% by weight. In such embodiments, the mixture including the piroctone olamine and phenoxyethanol is preferably heated to a temperature of from 50-120° C.; for example from 60-100° C.; for example from 65-80° C.; preferably to effect partial or complete dissolution of the piroctone olamine.
The data above show the feasibility of adding piroctone olamine as a phenoxyethanol solution up to at least 30% w/w during bar soap manufacturing, if heated, for example to 80° C. Furthermore, some piroctone olamine can optionally be supplemented as a solution in a further solvent, such as a fragrance or a fragrance dissolved in a solvent, preferably up to 7.5% at room temperature.

For the compound `Cc1cc(CC(C)CC(C)(C)C)n(O)c(=O)c1.NCCO` (stereo not shown) [piroctone olamine], the “piroctone olamine as a phenoxyethanol solution, feasible concentration” value is listed as “at least 30 % w/w”.
